Reference: patent US9557321B2, “Method for screening drugs for suppressing inflammasome activity” (KYOTO UNIVERSITY, priority 2010, dated 2017)
Residues, ends and D or L forms follow the SMILES beside them. *: point of attachment. Cbz = O=C(OCc1ccccc1)*

Tests used:
[1] = test system: macrophage MT-1 induced from iPS cells (mutant NLRP3 gene); settings: for amount of secretion of IL-1β: 100 ng/ml IL-1Ra, 12 μM Bay11-7028, 50 μM CA074Me or 10 μM Parthenolide, two hours, then drug and LPS (1 μg/ml) four hours, FIG. 5A; for amount of IL-1β secretion: each concentration of drug, cultured two hours, then drug and LPS (1 μg/ml) another four hours, FIG. 4
[2] = test system: macrophage MT-1 induced from iPS cells (mutant NLRP3 gene); test: amount of IL-8 secretion from LPS-stimulated macrophage MT-1 (Human Th1/Th2 11plex Kit); settings: 100 ng/ml IL-1Ra, 12 μM Bay11-7028 or 10 μM Parthenolide; two hours, then drug and LPS (1 μg/ml) four hours; FIG. 5B
[3] = test system: macrophage MT-1 induced from iPS cells (mutant NLRP3 gene); test: amount of IL-6 secretion from LPS-stimulated macrophage MT-1 (Human Th1/Th2 11plex Kit); settings: 100 ng/ml IL-1Ra, 12 μM Bay11-7028 or 10 μM Parthenolide; two hours, then drug and LPS (1 μg/ml) four hours; FIG. 5C

Molecule	amount of secretion of IL-1β [1]	amount of secretion of IL-8 [2]	amount of secretion of IL-6 [3]	amount of IL-1β secretion [1]
Cc1ccc(S(=O)(=O)/C=C/C#N)cc1 [Bay11-7028]	inhibited	inhibited	inhibited	–
CC(C)C[C@@H](C=O)NC(=O)[C@H](CC(C)C)NC(=O)[C@H](CC(C)C)NC(=O)OCc1ccccc1 [MG132] (Cbz-Leu-Leu-Leu-aldehyde)	–	–	–	inhibited IL-1β secretion in a dose dependent manner
C[C@@H]1C[C@@H]([C@H](O)CC2CC(=O)NC(=O)C2)C(=O)[C@@H](C)C1 [CHX, cycloheximide]	–	–	–	inhibited IL-1β secretion in a dose dependent manner
IL-1Ra: interleukin 1 receptor antagonist (R&D Systems)	did not change	did not change	did not change	–
CCCNC(=O)[C@H]1O[C@@H]1C(=O)N[C@H](C(=O)N1CCC[C@H]1C(=O)OC)[C@@H](C)CC [CA074Me]	specifically inhibited	–	–	–
